Measurements taken from PubChem BioAssay (NCI).
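Protocol summary: plate cells (96-well), add compound at 5 concentrations, incubate 48 h, interpolate endpoints linearly. Here, GI50 denotes the concentration required for 50% inhibition of growth. TGI denotes the concentration required for complete inhibition of growth.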

Key:
Assay in all cases: NCI-60 cell line screen, 48 h
UACC-257 melanoma = system: UACC-257 melanoma
OVCAR-4 ovarian = system: OVCAR-4 ovarian
NCI-H226 lung = system: NCI-H226 lung
SW-620 colon = system: SW-620 colon
HOP-62 NSCLC = system: HOP-62 NSCLC
K-562 leukemia = system: K-562 leukemia
UO-31 renal = system: UO-31 renal
HCT-116 colon = system: HCT-116 colon
KM12 colon = system: KM12 colon
MDA-MB-231 breast = system: MDA-MB-231 breast

Row | SMILES | GI50 (UACC-257 melanoma) | TGI (UACC-257 melanoma) | GI50 (OVCAR-4 ovarian) | TGI (OVCAR-4 ovarian) | GI50 (NCI-H226 lung) | TGI (NCI-H226 lung) | GI50 (SW-620 colon) | TGI (SW-620 colon) | GI50 (HOP-62 NSCLC) | TGI (HOP-62 NSCLC) | GI50 (K-562 leukemia) | TGI (K-562 leukemia) | GI50 (UO-31 renal) | TGI (UO-31 renal) | GI50 (HCT-116 colon) | TGI (HCT-116 colon) | GI50 (KM12 colon) | TGI (KM12 colon) | GI50 (MDA-MB-231 breast) | TGI (MDA-MB-231 breast)
1 | CCN(CC)CCC(CNc1c2ccc(Cl)cc2nc2ccc(OC)cc12)c1ccccc1 (stereo not given) | 2.01 µM | 3.63 µM | 1.64 µM | 4.26 µM | 1.43 µM | 4.99 µM | 0.538 µM | 2.15 µM | 1.16 µM | 3.11 µM | 0.337 µM | 1.28 µM | 1.3 µM | 3.27 µM | 0.729 µM | 3.52 µM | 0.996 µM | 4.47 µM | 1.01 µM | 2.73 µM
2 | CC1SC(c2cccc(Oc3ccccc3)c2)N(CCc2cccs2)C1=O (stereo not given) | 1.25 µM | 3.3 µM | 0.425 µM | 1.88 µM | 1.28 µM | 2.94 µM | 1.4 µM | 3 µM | 1.6 µM | 3.42 µM | 0.573 µM | 7.79 µM | 0.469 µM | 1.9 µM | 0.457 µM | 1.76 µM | 0.626 µM | 2.49 µM | 1.09 µM | 2.58 µM
3 | O=C(CN1C(=O)c2ccccc2C1=O)NC1(C(=O)O)CCCC1 |  | > 100 µM |  | > 100 µM |  | > 100 µM |  | > 100 µM |  | > 100 µM |  | > 100 µM |  | > 100 µM |  | > 100 µM |  | > 100 µM |  | > 100 µM
4 | COc1cc2c(c(OC)c1OC)-c1c(c3ccc([N+](=O)[O-])cc3c(=O)n1CCCN=[N+]=[N-])C2=O | 0.0793 µM | 11.9 µM | 19.4 µM | 60.9 µM | 28.4 µM | 71.8 µM | 33.6 µM | > 100 µM | 15.4 µM | 38.1 µM | > 100 µM | > 100 µM | 4.92 µM | 72.5 µM | 14.2 µM | 38 µM | > 100 µM | > 100 µM | 19.1 µM | 56.3 µM
5 | CCN(CC)CCCC(C)NC(=S)N/N=C(\C)c1ccccn1 (stereo not given) | 3.16 µM | 31.2 µM | 3 µM | > 100 µM | 2.28 µM | 21.2 µM | 4.03 µM | > 100 µM | 5.86 µM | 83.1 µM | 3.08 µM | > 100 µM | 2.51 µM | > 100 µM | 2.3 µM | > 100 µM | 4.02 µM | > 100 µM | 0.475 µM | > 100 µM
6 | CN(C)CCCn1c2c(c3ccc([N+](=O)[O-])cc3c1=O)C(=O)c1ccccc1-2 | 38.1 µM | > 100 µM | 27.6 µM | > 100 µM | 6.82 µM | 24 µM | 5.7 µM | > 100 µM | 5.67 µM | 20.8 µM | 6.05 µM | > 100 µM | 4.28 µM | 47.8 µM | 6.48 µM | 21.8 µM | 28.4 µM | > 100 µM | 15.9 µM | 38.1 µM
7 | Nc1nc(N)c2nn(-c3ccc(C(=O)O)cc3)nc2n1 |  | > 100 µM |  | > 100 µM |  | > 100 µM |  | > 100 µM |  | > 100 µM |  | > 100 µM |  | > 100 µM |  | > 100 µM |  | > 100 µM |  | > 100 µM
8 | CCCCCCCCCCCCOC1C(C(COC2OC(C(O)CO)C3OC(C)(C)OC23)OC(=O)Nc2ccc([N+](=O)[O-])cc2)OC2OC(C)(C)OC21 (stereo not given) | 3.53 µM | 9.35 µM | 7.09 µM | 23.5 µM | 2.98 µM | 11.2 µM | 1.79 µM | 3.33 µM | 1.95 µM | 3.8 µM | 3.87 µM | 16.8 µM | 3.62 µM | 12.9 µM | 1.77 µM | 3.45 µM | 2 µM | 4.1 µM | 2.6 µM | 7.2 µM
9 | COc1cc2c(cc1Nc1nc(Nc3ccsc3C(N)=O)c3cc[nH]c3n1)N(C(=O)CN(C)C)CCC2 | 0.0558 µM | 3.67 µM | 2.98 µM | 9.03 µM | 1.12 µM | 7.18 µM | 0.0726 µM | > 25 µM | 0.917 µM | 6.84 µM | 0.875 µM | 13.7 µM | 3.35 µM | 7.39 µM | 0.458 µM | 3.79 µM | 0.529 µM | 2.66 µM | 1.01 µM | 4.63 µM
10 | CCCCCCn1c(=N)n(CC(O)COc2cccc(C)c2)c2ccccc21 (stereo not given) | 2 µM | 4.35 µM | 2.15 µM | 6.27 µM | 3.14 µM | 12.5 µM | 1.82 µM | 4.04 µM | 2.14 µM | 3.88 µM | 2.07 µM | 5.28 µM | 3.88 µM | 15.4 µM | 1.36 µM | 2.89 µM | 2.04 µM | 4.17 µM | 2.2 µM | 6.44 µM
11 | O=C1C2=C(Nc3cc([N+](=O)[O-])ccc3N2)OC1c1c[nH]c2ccc(COc3ccccc3)cc12 (stereo not given) |  | > 100 µM |  | > 100 µM |  | > 100 µM |  | > 100 µM |  | > 100 µM |  | > 100 µM |  | > 100 µM |  | > 100 µM |  | > 100 µM |  | > 100 µM
12 | Cn1c(N)c(N=Nc2ccc(S(N)(=O)=O)cc2)c(=O)n(C)c1=O |  | > 100 µM |  | > 100 µM |  | > 100 µM |  | > 100 µM |  | > 100 µM |  | > 100 µM |  | > 100 µM |  | > 100 µM |  | > 100 µM |  | > 100 µM
13 | O=C(/C=C/CN1CCCCC1)Nc1cc2c(Nc3ccc(F)c(Cl)c3F)ncnc2cc1OCCOC(F)F | 1.74 µM | 5.64 µM | 1.23 µM | 13 µM | 1.48 µM | 5.73 µM | 1.49 µM | 8.17 µM | 1.64 µM | 7.04 µM | 0.715 µM | 8.12 µM | < 0.0116 µM | 5.89 µM | 1.31 µM | 8.43 µM | 2.44 µM | 9.01 µM | 0.882 µM | 4.88 µM
